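In this assay, cells in 96-well plates receive the compound at five concentrations for 48 hours. Endpoints are linearly interpolated between the surrounding concentrations. Abbreviation: GI50, concentration required for 50% inhibition of growth. TGI is the concentration that stops growth completely.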
Experiments:
Experiment in all cases: NCI tumour cell line growth inhibition, 48 h
[1] = system: HCT-15 colon
[2] = system: SF-539 CNS
[3] = system: SK-MEL-5 melanoma
[4] = system: ACHN renal
[5] = system: RXF 393 renal
[6] = system: SK-OV-3 ovarian
[7] = system: EKVX NSCLC
[8] = system: SN12C renal
[9] = system: SNB-78 CNS
[10] = system: SF-268 CNS
[11] = system: OVCAR-5 ovarian
[12] = system: HT29 colon
[13] = system: SNB-75 CNS
[14] = system: NCI-H226 lung
[15] = system: NCI-H23 lung
[16] = system: OVCAR-3 ovarian
[17] = system: DMS 273 small cell lung
[18] = system: A498 renal
[19] = system: NCI-H522 lung
[20] = system: MOLT-4 leukemia
[21] = system: OVCAR-4 ovarian
[22] = system: UACC-62 melanoma
[23] = system: U251 CNS
[24] = system: UACC-257 melanoma
[25] = system: K-562 leukemia
[26] = system: DLD-1 colon
[27] = system: OVCAR-8 ovarian
[28] = system: KM12 colon
[29] = system: HL-60(TB) leukemia
[30] = system: A549 NSCLC
[31] = system: CAKI-1 renal
[32] = system: HCT-116 colon
[33] = system: KM20L2 colon
[34] = system: SK-MEL-2 melanoma
[35] = system: COLO 205 colon
[36] = system: HCC-2998 colon
[37] = system: RPMI-8226 leukemia
[38] = system: MALME-3M melanoma
[39] = system: SK-MEL-28 melanoma
[40] = system: LXFL 529 NSCLC
[41] = system: HOP-18 NSCLC
[42] = system: TK-10 renal
[43] = system: UO-31 renal
[44] = system: NCI-H460 lung
[45] = system: LOX IMVI melanoma
[46] = system: M14 melanoma
[47] = system: SW-620 colon
[48] = system: IGROV1 ovarian
[49] = system: 786-0 renal
[50] = system: CCRF-CEM leukemia
[51] = system: SF-295 CNS
[52] = system: SNB-19 CNS
[53] = system: HOP-92 NSCLC
[54] = system: HOP-62 NSCLC
[55] = system: M19-MEL melanoma
[56] = system: DMS 114 small cell lung
[57] = system: XF 498 CNS

N.N.N.N.N.N.[I-].[Os] was tested, and the GI50 [1] was greater than 100 µM, the TGI [1] was greater than 100 µM and the GI50 [2] was greater than 100 µM. It also gave a TGI [2] greater than 100 µM, a GI50 [3] greater than 100 µM and a TGI [3] greater than 100 µM. It also gave a GI50 [4] greater than 100 µM, a TGI [4] greater than 100 µM and a GI50 [5] greater than 100 µM. The TGI [5] was greater than 100 µM, the GI50 [6] was greater than 100 µM and the TGI [6] was greater than 100 µM. For the same compound, the GI50 [7] was greater than 100 µM, the TGI [7] was greater than 100 µM and the GI50 [8] was greater than 100 µM. The TGI [8] was greater than 100 µM, the GI50 [9] was greater than 100 µM and the TGI [9] was greater than 100 µM. For the same compound, the GI50 [10] was greater than 100 µM, the TGI [10] was greater than 100 µM and the GI50 [11] was greater than 100 µM. It also gave a TGI [11] greater than 100 µM, a GI50 [12] greater than 100 µM and a TGI [12] greater than 100 µM. The GI50 [13] was greater than 100 µM, the TGI [13] was greater than 100 µM and the GI50 [14] was greater than 100 µM. The TGI [14] was greater than 100 µM, the GI50 [15] was greater than 100 µM and the TGI [15] was greater than 100 µM. For the same compound, the GI50 [16] was greater than 100 µM, the TGI [16] was greater than 100 µM and the GI50 [17] was greater than 100 µM. It also gave a TGI [17] greater than 100 µM, a GI50 [18] greater than 100 µM and a TGI [18] greater than 100 µM. For the same compound, the GI50 [19] was greater than 100 µM, the TGI [19] was greater than 100 µM and the GI50 [20] was greater than 100 µM. It also gave a TGI [20] greater than 100 µM, a GI50 [21] greater than 100 µM and a TGI [21] greater than 100 µM. It also gave a GI50 [22] greater than 100 µM, a TGI [22] greater than 100 µM and a GI50 [23] greater than 100 µM. The TGI [23] was greater than 100 µM, the GI50 [24] was greater than 100 µM and the TGI [24] was greater than 100 µM. The GI50 [25] was greater than 100 µM, the TGI [25] was greater than 100 µM and the GI50 [26] was greater than 100 µM. The TGI [26] was greater than 100 µM, the GI50 [27] was greater than 100 µM and the TGI [27] was greater than 100 µM. For the same compound, the GI50 [28] was greater than 100 µM, the TGI [28] was greater than 100 µM and the GI50 [29] was greater than 100 µM. It also gave a TGI [29] greater than 100 µM, a GI50 [30] greater than 100 µM and a TGI [30] greater than 100 µM. The GI50 [31] was greater than 100 µM, the TGI [31] was greater than 100 µM and the GI50 [32] was greater than 100 µM. For the same compound, the TGI [32] was greater than 100 µM, the GI50 [33] was greater than 100 µM and the TGI [33] was greater than 100 µM. It also gave a GI50 [34] greater than 100 µM, a TGI [34] greater than 100 µM and a GI50 [35] greater than 100 µM. The TGI [35] was greater than 100 µM, the GI50 [36] was greater than 100 µM and the TGI [36] was greater than 100 µM. The GI50 [37] was greater than 100 µM, the TGI [37] was greater than 100 µM and the GI50 [38] was 38.9 µM. The TGI [38] was 96.5 µM, the GI50 [39] was greater than 100 µM and the TGI [39] was greater than 100 µM. It also gave a GI50 [40] greater than 100 µM, a TGI [40] greater than 100 µM and a GI50 [41] greater than 100 µM. For the same compound, the TGI [41] was greater than 100 µM, the GI50 [42] was greater than 100 µM and the TGI [42] was greater than 100 µM. For the same compound, the GI50 [43] was greater than 100 µM, the TGI [43] was greater than 100 µM and the GI50 [44] was greater than 100 µM. It also gave a TGI [44] greater than 100 µM, a GI50 [45] greater than 100 µM and a TGI [45] greater than 100 µM. For the same compound, the GI50 [46] was greater than 100 µM, the TGI [46] was greater than 100 µM and the GI50 [47] was greater than 100 µM. For the same compound, the TGI [47] was greater than 100 µM, the GI50 [48] was greater than 100 µM and the TGI [48] was greater than 100 µM. It also gave a GI50 [49] greater than 100 µM, a TGI [49] greater than 100 µM and a GI50 [50] greater than 100 µM. The TGI [50] was greater than 100 µM, the GI50 [51] was greater than 100 µM and the TGI [51] was greater than 100 µM. For the same compound, the GI50 [52] was greater than 100 µM, the TGI [52] was greater than 100 µM and the GI50 [53] was greater than 100 µM. For the same compound, the TGI [53] was greater than 100 µM, the GI50 [54] was greater than 100 µM and the TGI [54] was greater than 100 µM.

For CCc1ccccc1NC(=O)CCc1n[nH]c(=S)o1, the TGI [1] was 36.8 µM, the TGI [2] was greater than 100 µM and the TGI [3] was greater than 100 µM. The TGI [4] was greater than 100 µM, the TGI [6] was greater than 100 µM and the TGI [7] was greater than 100 µM. It also gave a TGI [8] greater than 100 µM, a TGI [9] greater than 100 µM and a TGI [10] greater than 100 µM. It also gave a TGI [11] greater than 100 µM, a TGI [12] greater than 100 µM and a TGI [13] greater than 100 µM. For the same compound, the TGI [14] was greater than 100 µM, the TGI [15] was greater than 100 µM and the TGI [16] was greater than 100 µM. It also gave a TGI [17] greater than 100 µM, a TGI [18] greater than 100 µM and a TGI [20] greater than 100 µM. The TGI [21] was greater than 100 µM, the TGI [55] was greater than 100 µM and the TGI [22] was greater than 100 µM. It also gave a TGI [23] greater than 100 µM, a TGI [24] greater than 100 µM and a TGI [25] greater than 100 µM. It also gave a TGI [26] greater than 100 µM, a TGI [27] greater than 100 µM and a TGI [28] greater than 100 µM. It also gave a TGI [29] greater than 100 µM, a TGI [56] greater than 100 µM and a TGI [30] greater than 100 µM. The TGI [31] was greater than 100 µM, the TGI [32] was 42.5 µM and the TGI [33] was greater than 100 µM. The TGI [35] was greater than 100 µM, the TGI [36] was greater than 100 µM and the TGI [37] was greater than 100 µM. For the same compound, the TGI [38] was greater than 100 µM, the TGI [39] was greater than 100 µM and the TGI [40] was greater than 100 µM. It also gave a TGI [41] greater than 100 µM, a TGI [42] greater than 100 µM and a TGI [43] greater than 100 µM. It also gave a TGI [44] greater than 100 µM, a TGI [46] greater than 100 µM and a TGI [47] of 44.1 µM. For the same compound, the TGI [48] was greater than 100 µM, the TGI [49] was greater than 100 µM and the TGI [50] was greater than 100 µM. The TGI [51] was greater than 100 µM, the TGI [52] was greater than 100 µM and the TGI [53] was greater than 100 µM. The TGI [54] was greater than 100 µM.

Work on C[C@@H](CO)OCOCc1ccccc1 yielded a TGI [1] greater than 100 µM, a TGI [2] greater than 100 µM and a TGI [3] greater than 100 µM. The TGI [5] was greater than 100 µM, the TGI [6] was greater than 100 µM and the TGI [8] was greater than 100 µM. The TGI [9] was greater than 100 µM, the TGI [10] was greater than 100 µM and the TGI [12] was greater than 100 µM. For the same compound, the TGI [13] was greater than 100 µM, the TGI [15] was greater than 100 µM and the TGI [16] was greater than 100 µM. It also gave a TGI [17] greater than 100 µM, a TGI [18] greater than 100 µM and a TGI [19] greater than 100 µM. The TGI [20] was greater than 100 µM, the TGI [21] was greater than 100 µM and the TGI [55] was greater than 100 µM. The TGI [22] was greater than 100 µM, the TGI [23] was greater than 100 µM and the TGI [24] was greater than 100 µM. The TGI [25] was greater than 100 µM, the TGI [26] was greater than 100 µM and the TGI [28] was greater than 100 µM. For the same compound, the TGI [29] was greater than 100 µM, the TGI [56] was greater than 100 µM and the TGI [30] was greater than 100 µM. The TGI [57] was greater than 100 µM, the TGI [31] was greater than 100 µM and the TGI [32] was greater than 100 µM. It also gave a TGI [34] greater than 100 µM, a TGI [35] greater than 100 µM and a TGI [36] greater than 100 µM. It also gave a TGI [37] greater than 100 µM, a TGI [38] greater than 100 µM and a TGI [39] greater than 100 µM. For the same compound, the TGI [40] was greater than 100 µM, the TGI [43] was greater than 100 µM and the TGI [44] was greater than 100 µM. For the same compound, the TGI [45] was greater than 100 µM, the TGI [46] was greater than 100 µM and the TGI [47] was greater than 100 µM. The TGI [48] was greater than 100 µM, the TGI [49] was greater than 100 µM and the TGI [50] was greater than 100 µM. For the same compound, the TGI [51] was greater than 100 µM, the TGI [52] was greater than 100 µM and the TGI [53] was greater than 100 µM. For the same compound, the TGI [54] was greater than 100 µM.

— PubChem BioAssay (NCI)
